Source: ChEMBL document CHEMBL4627277, “Catenulisporidins A and B, 16-membered macrolides of the hygrolidin family produced by the chemically underexplored actinobacterium Catenulispora species” (Bioorg Med Chem Lett, 2020)
The source made the active and inactive calls. The rule behind the calls is not given here.

Columns and labels:
Format in all cases: functional, cell-based
HeLa [1] = assay: Induction of autophagy in human HeLa cells expressing mRFP-EGFP-LC3B assessed as accumulation of red and green fluorescence signals at 200 nM measured after 24 hrs by fluorescence microscopic analysis
HeLa [2] = assay: Modulation of autophagy in human HeLa cells assessed as autophagosome maturation by measuring conversion of LC3B-I to LC3B-II measured after 24 hrs by western blot analysis
HeLa [3] = assay: Inhibition of autophagic flux in human HeLa cells expressing mRFP-EGFP-LC3B assessed as blockage of autophagosome-lysosome fusion by measuring accumulation of yellow puncta at 3 uM measured after 24 hrs by fluorescence microscopic analysis
HeLa [4] = assay: Modulation of autophagy in human HeLa cells assessed as accumulation of p62 measured after 24 hrs by western blot analysis
HeLa [5] = assay: Antiproliferative activity against human HeLa cells assessed as reduction in cell growth
HeLa [6] = assay: Modulation of autophagy in human HeLa cells expressing mRFP-EGFP-LC3B assessed as induction of EGFP-LC3B puncta formation at 3 uM measured after 24 hrs by fluorescence microscopic analysis
HeLa [7] = assay: Modulation of autophagy in human HeLa cells expressing mRFP-EGFP-LC3B assessed as induction of EGFP-LC3B puncta formation at 0.3 uM measured after 24 hrs by fluorescence microscopic analysis

SMILES	Activity (HeLa [1])	Activity (HeLa [2])	inhibition (HeLa [3])	Activity (HeLa [4])	IC50 (HeLa [5]) [µM]	Activity (HeLa [6])	Activity (HeLa [7])
CCC(=O)N1CCN(c2ccc(-n3c(=O)ccc4cnc5ccc(-c6cnc7ccccc7c6)cc5c43)cc2C(F)(F)F)CC1	Active						
CC[C@H]1O[C@@](O)([C@@H](C)[C@H](O)[C@H](C)[C@H]2OC(=O)/C(C)=C/C(C)=C/[C@@H](C)[C@@H](O)[C@@H](C)C[C@@](C)(O)[C@@H](O)/C=C/[C@@H]2OC)C[C@@H](OC(=O)/C=C/C(=O)O)[C@@H]1C		Dose-dependent effect	Active	Dose-dependent effect	> 30	Active	
CC[C@H]1O[C@@](O)([C@@H](C)[C@H](O)[C@H](C)[C@H]2OC(=O)/C(C)=C/C(C)=C/[C@@H](C)[C@H]3O[C@](C)(C[C@@H]3C)[C@@H](O)/C=C/[C@@H]2OC)C[C@@H](OC(=O)/C=C/C(=O)O)[C@@H]1C		Dose-dependent effect	Active	Dose-dependent effect	> 30	Active	
CC[C@H]1O[C@@](O)([C@@H](C)[C@H](O)[C@H](C)[C@H]2OC(=O)/C(C)=C/C(C)=C/[C@@H](C)[C@@H](O)[C@@H](C)C/C(C)=C/C=C/[C@@H]2OC)C[C@@H](OC(=O)/C=C/C(=O)O)[C@@H]1C		Dose-dependent effect	Active	Dose-dependent effect	11.8	Active	Active
CO/C1=C\C(C)=C\[C@@H](C)[C@@H](O)[C@@H](C)C/C(C)=C/C=C/[C@H](OC)[C@@H]([C@@H](C)[C@@H](O)[C@H](C)[C@@]2(O)C[C@@H](O)[C@H](C)[C@@H](C(C)C)O2)OC1=O [BAFILOMYCIN A1]			Active	Dose-dependent effect	13	Active	Active
